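These data come from cells grown in 96-well plates and exposed to compound for 48 hours at five concentrations. At the GI50, growth is halved. TGI is the concentration that stops growth completely.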 Some results are limits rather than exact numbers.

Here are results for 16 compounds from PubChem BioAssay (NCI).

Some test systems named below: SN12C renal; LOX IMVI melanoma; T-47D breast; U251 CNS; HL-60(TB) leukemia; OVCAR-8 ovarian; UO-31 renal; OVCAR-5 ovarian; OVCAR-3 ovarian; HCC-2998 colon.
What all share (experiment): growth of human tumour cells (NCI), 48 h

Regarding `CC1(C)OC2C(=O)C=C(COCc3ccccc3)C2O1` (centres undefined), the TGI with SN12C renal was above 100 µM; with LOX IMVI melanoma, 53.5 µM; with T-47D breast, 56.3 µM; in the experiment with U251 CNS, 90 µM; in the experiment with HL-60(TB) leukemia it was 77.1 µM; in the experiment with OVCAR-8 ovarian, above 100 µM. The TGI is 50.1 µM in the experiment with UO-31 renal and 84.6 µM with OVCAR-5 ovarian.
Turning to `Cc1cccc(NC(=O)c2sc3nc4c(cc3c2N)CN(Cc2ccccc2)CC4)c1C`, the GI50 is 0.313 µM in the experiment with SN12C renal; 0.194 µM with OVCAR-3 ovarian; 0.254 µM in the experiment with LOX IMVI melanoma; 5.39 µM with HCC-2998 colon; 0.226 µM in the experiment with T-47D breast; 0.251 µM in the experiment with U251 CNS. Moreover, the GI50 in the experiment on OVCAR-8 ovarian is 0.297 µM; in the experiment with UO-31 renal, 0.917 µM; with OVCAR-5 ovarian, 0.484 µM. Further, the TGI in the experiment with SN12C renal was above 50 µM; with OVCAR-3 ovarian it was 31.9 µM; with LOX IMVI melanoma, above 50 µM; with HCC-2998 colon, above 50 µM; with T-47D breast, above 50 µM; with U251 CNS it was above 50 µM. Moreover, the TGI in the experiment with OVCAR-8 ovarian, in the experiment with UO-31 renal and in the experiment on OVCAR-5 ovarian was above 50 µM throughout.
For the compound `O=C(Oc1cccnc1)c1ccsc1Nc1ccnc(C(F)(F)F)c1`, the GI50 in the experiment on SN12C renal is 4.44 µM; with OVCAR-3 ovarian, 8.76 µM; in the experiment on LOX IMVI melanoma it was 3.19 µM; in the experiment on HCC-2998 colon, 11 µM; with T-47D breast it was 13.8 µM; in the experiment with U251 CNS it was 3.91 µM. The GI50 with OVCAR-8 ovarian is 4.14 µM; in the experiment with UO-31 renal, 20.8 µM; in the experiment on OVCAR-5 ovarian it was 4.67 µM. The TGI with SN12C renal was above 100 µM; with OVCAR-3 ovarian it was above 100 µM; with LOX IMVI melanoma, above 100 µM; in the experiment with HCC-2998 colon it was 24 µM; in the experiment with T-47D breast, 68 µM; with U251 CNS, 18.7 µM. For the same compound, the TGI in the experiment with OVCAR-8 ovarian, in the experiment on UO-31 renal and in the experiment on OVCAR-5 ovarian was above 100 µM in each case.
Turning to `O=c1[nH]cnc2c(C3NC(CO)C(O)C3O)c[nH]c12` (centres undefined), the GI50 with SN12C renal, with OVCAR-3 ovarian, with LOX IMVI melanoma, with HCC-2998 colon, in the experiment on T-47D breast and in the experiment on U251 CNS was above 100 µM throughout. The GI50 in the experiment on OVCAR-8 ovarian, in the experiment with UO-31 renal and with OVCAR-5 ovarian was above 100 µM each time. In addition, the TGI in the experiment with SN12C renal, in the experiment with OVCAR-3 ovarian, with LOX IMVI melanoma, in the experiment on HCC-2998 colon, in the experiment on T-47D breast and with U251 CNS was above 100 µM throughout. In addition, the TGI in the experiment with OVCAR-8 ovarian, in the experiment with UO-31 renal and with OVCAR-5 ovarian was above 100 µM in each case.
As to `N/N=C1\CC(=O)NC(=O)N1`, the TGI in the experiment on SN12C renal, with OVCAR-3 ovarian, in the experiment with LOX IMVI melanoma, in the experiment with T-47D breast, in the experiment on U251 CNS and in the experiment with HL-60(TB) leukemia was above 100 µM throughout. The TGI in the experiment with OVCAR-8 ovarian, in the experiment with UO-31 renal and with OVCAR-5 ovarian was above 100 µM in each case.
For the compound `COC1O[C@@H]2C[C@H]3C(C)(C)CCC[C@]3(C)C3=CCCC1[C@@]32C` (some centres undefined), the GI50 in the experiment on SN12C renal, in the experiment on OVCAR-3 ovarian, in the experiment on LOX IMVI melanoma, in the experiment with T-47D breast, in the experiment on U251 CNS and in the experiment with OVCAR-8 ovarian was above 100 µM throughout. Further, the GI50 in the experiment on UO-31 renal and in the experiment on OVCAR-5 ovarian was above 100 µM each time. Also, the TGI with SN12C renal, in the experiment with OVCAR-3 ovarian, with LOX IMVI melanoma, in the experiment on T-47D breast, in the experiment on U251 CNS and with OVCAR-8 ovarian was above 100 µM in each case. The TGI with UO-31 renal and in the experiment on OVCAR-5 ovarian was above 100 µM in each case.
In the case of `O=C(O)COc1c(Cl)cc(Cl)c2cccnc12`, the TGI in the experiment on SN12C renal, in the experiment on OVCAR-3 ovarian, with LOX IMVI melanoma, in the experiment with T-47D breast, in the experiment with U251 CNS and in the experiment with HL-60(TB) leukemia was above 100 µM in each case. The TGI with OVCAR-8 ovarian, in the experiment with UO-31 renal and in the experiment with OVCAR-5 ovarian was above 100 µM throughout.
Regarding `COc1ccc(OC)c(C2SCC(=O)N2NC(=O)C(O)c2ccccc2)c1` (centres undefined), the GI50 in the experiment on SN12C renal, in the experiment on OVCAR-3 ovarian, with LOX IMVI melanoma, in the experiment on HCC-2998 colon, in the experiment with T-47D breast and with U251 CNS was above 100 µM each time. Moreover, the GI50 with OVCAR-8 ovarian, in the experiment on UO-31 renal and in the experiment with OVCAR-5 ovarian was above 100 µM in each case. The TGI in the experiment with SN12C renal, in the experiment with OVCAR-3 ovarian, with LOX IMVI melanoma, in the experiment on HCC-2998 colon, in the experiment on T-47D breast and with U251 CNS was above 100 µM in each case. Also, the TGI with OVCAR-8 ovarian, in the experiment with UO-31 renal and in the experiment on OVCAR-5 ovarian was above 100 µM throughout.
`Nc1ccc(-c2nc3ccccc3[nH]2)c2ccccc12`: the GI50 with SN12C renal was 10.1 µM; in the experiment with OVCAR-3 ovarian, 2.5 µM; with LOX IMVI melanoma it was 4.97 µM; in the experiment on HCC-2998 colon, 2.46 µM; with T-47D breast it was 11.6 µM; in the experiment with U251 CNS, 4.12 µM. Also, the GI50 is 5.2 µM with OVCAR-8 ovarian, 5.32 µM in the experiment with UO-31 renal and 6.08 µM with OVCAR-5 ovarian. Besides, the TGI is 59.7 µM in the experiment with SN12C renal; above 41.4 µM with OVCAR-3 ovarian; 48.1 µM in the experiment on LOX IMVI melanoma; 10.5 µM in the experiment with HCC-2998 colon; above 61.6 µM with T-47D breast; 30.6 µM in the experiment with U251 CNS. The TGI in the experiment on OVCAR-8 ovarian is 65.1 µM; in the experiment with UO-31 renal it was above 82.8 µM; with OVCAR-5 ovarian, above 53.5 µM.
Regarding `CC1=CC(=O)C(O)C2(C)C1CC(O)C13COC4(C)C(OC(=O)C41)C(O)C23` (centres undefined), the GI50 in the experiment on SN12C renal is 8.32 µM; with OVCAR-3 ovarian, 19.5 µM; in the experiment with LOX IMVI melanoma it was 2.41 µM; with T-47D breast, 17.6 µM; in the experiment on U251 CNS it was 6.1 µM; with HL-60(TB) leukemia, 4.24 µM. For the same compound, the GI50 with OVCAR-8 ovarian is 5.57 µM; in the experiment on UO-31 renal, 10.7 µM; with OVCAR-5 ovarian, 20.5 µM. Also, the TGI in the experiment on SN12C renal is 32.7 µM; in the experiment with OVCAR-3 ovarian it was 62.9 µM; with LOX IMVI melanoma, 8.4 µM; with T-47D breast, 66.5 µM; with U251 CNS it was 31.6 µM; in the experiment on HL-60(TB) leukemia it was above 100 µM. Moreover, the TGI worked out at 25.2 µM in the experiment with OVCAR-8 ovarian, 42.7 µM in the experiment on UO-31 renal and 78.3 µM with OVCAR-5 ovarian.
On to `Cc1ccc(C2=Nc3ccccc3SC(c3cccc([N+](=O)[O-])c3)C2)cc1` (centres undefined), for which the TGI was above 100 µM in the experiment with SN12C renal; 60 µM in the experiment with OVCAR-3 ovarian; 72.5 µM with T-47D breast; 16.9 µM in the experiment on U251 CNS; 71.2 µM with OVCAR-8 ovarian; 23 µM in the experiment on UO-31 renal. Moreover, the TGI with OVCAR-5 ovarian was above 100 µM.
As to `COc1ccc(C(=O)N2c3ccccc3Sc3ccccc32)c(OC)c1`, the GI50 in the experiment on SN12C renal is 0.586 µM; with OVCAR-3 ovarian, 0.322 µM; with LOX IMVI melanoma, 0.601 µM; in the experiment on HCC-2998 colon, 1.49 µM; in the experiment with U251 CNS it was 0.615 µM; in the experiment on HL-60(TB) leukemia it was 0.297 µM. Moreover, the figures for the GI50 in the experiment on OVCAR-8 ovarian, with UO-31 renal and in the experiment with OVCAR-5 ovarian were 0.749 µM, 0.739 µM and 10 µM, respectively. For the same compound, the TGI in the experiment on SN12C renal is above 100 µM; in the experiment on OVCAR-3 ovarian, 1.14 µM; in the experiment on LOX IMVI melanoma it was above 100 µM; in the experiment on HCC-2998 colon it was 8.09 µM; in the experiment on U251 CNS it was above 100 µM; in the experiment with HL-60(TB) leukemia, 18.5 µM. In addition, the TGI in the experiment with OVCAR-8 ovarian, in the experiment on UO-31 renal and in the experiment with OVCAR-5 ovarian was above 100 µM in each case.
Consider `Cc1ccc(NC(=O)c2ccccc2C(=O)O)cc1C`, for which the TGI in the experiment on SN12C renal, in the experiment with OVCAR-3 ovarian, in the experiment with LOX IMVI melanoma, in the experiment with T-47D breast, in the experiment on U251 CNS and in the experiment on OVCAR-8 ovarian was above 100 µM throughout. The compound also displayed a TGI with OVCAR-5 ovarian above 100 µM.
As to `Cn1c2ccccc2n2c(=O)c3c(c(C#N)c12)CCCC3`, the TGI with SN12C renal, in the experiment with OVCAR-3 ovarian, in the experiment with LOX IMVI melanoma, in the experiment with HCC-2998 colon, in the experiment on U251 CNS and with HL-60(TB) leukemia was above 100 µM each time. Further, the TGI in the experiment on OVCAR-8 ovarian, in the experiment on UO-31 renal and in the experiment with OVCAR-5 ovarian was above 100 µM each time.
On to `CN(C)c1ccc(/C=C2\C=Cc3ccccc32)cc1`, for which the TGI in the experiment on SN12C renal, in the experiment on OVCAR-3 ovarian, with LOX IMVI melanoma, in the experiment on HCC-2998 colon, in the experiment on U251 CNS and with HL-60(TB) leukemia was above 100 µM throughout. The TGI in the experiment with OVCAR-8 ovarian, in the experiment with UO-31 renal and in the experiment with OVCAR-5 ovarian was above 100 µM throughout.
Turning to `CC1CN1c1c(C(=O)/C=C/c2ccccc2)c(-c2ccccc2)nn(C)c1=O` (centres undefined), the TGI in the experiment with SN12C renal amounted to 32.6 µM; with OVCAR-3 ovarian, 40.8 µM; in the experiment with LOX IMVI melanoma, 31.1 µM; in the experiment on HCC-2998 colon, 29.9 µM; with U251 CNS, 31.6 µM; in the experiment with HL-60(TB) leukemia it was 49.7 µM. The TGI in the experiment on OVCAR-8 ovarian was determined as 41 µM; in the experiment with UO-31 renal, 29.1 µM; in the experiment with OVCAR-5 ovarian, 37 µM.
